# Laboratory results reported in EP4775199A1, “DRUG-RELEASING ELECTROACTIVE IMPLANT FOR NERVOUS SYSTEM REPAIR” (priority 2023, dated 2025).
# “Also recorded” adds a separate entry of the source.
# What was measured:
# meningeal fibroblasts = format: cell-based, rat; conditions: 10 nM SB743921, 48 hours; control almost 90 %
# Protocol: Meningeal fibroblasts were cultured from adult rat dura mater and arachnoid mater in the presence of fetal bovine serum following published procedures (Collazos-Castro JE, Polo JL, Hernández-Labrado […]. Bioelectrochemical Control of Neural Cell Development on Conducting Polymers. Biomaterials 2010;31:9244-9255). […] The behavior of living cells was studied by means of videomicroscopy, capturing images every 30 minutes for 48 hours. In separate cultures, cell proliferation was also studied by means of the incorporation of 5-ethynyl-2'-deoxyuridine (EdU).
# [1] = Systemic (subcutaneous) administration of SB743921 after spinal cord transection; format: in vivo, rats; conditions: rat, in vivo, every 12 hours, starting 12 hours post-injury, at 7 DPI
# Protocol: (§1) A spinal transection model in adult male Wistar rats was used. Experimental protocols followed European Commission regulations and Spanish legislation for the protection of experimental animals (86/609/EEC, 32/2007, and 223/1988) and were approved by the Ethical Committee for Animal Experimentation of the Hospital Nacional de Parapléjicos of Toledo, Spain. In summary, animals were anesthetized by intraperitoneal (IP) injection of pentobarbital (50 mg/kg) and xylazine (10 mg/kg), providing supplemental doses of 30% one and a half hours later as needed. There were also administered atropine (0.04 mg/kg, IP) to decrease bronchial secretions, marbofloxacin as a prophylactic antibiotic, and ophthalmic ointment to prevent corneal abrasion. A dorsal laminectomy of the T9-T10 vertebrae, under which the T10 and T11 spinal segments are located, respectively, was performed. A small diagonal cut was made in the dura mater, followed by complete spinal cord transection. After a second more rostral cut, the tissue in between was extirpated leaving a neural tissue gap of about 2 mm (Figure 1A). Bleeding was controlled by introducing a fragment of Espongostan® into the cavity, which was removed once hemostasis was achieved. Durorrhaphy was then performed with simple stitches using 10-0 thread; and finally, the muscles and skin were sutured in layers.
# (§2) The same spinal cord transection model described in Example 1 was used, in other words, a 2 mm neural gap was created and the dura mater was sutured without other treatments at the injured site. The drug was dissolved in water at 0.8 mg/ml and administered subcutaneously (SC).
# (§3) Neural damage, Fibrosis development, inflammation, and repair responses (axonal growth, glial migration, blood vessel growth) were evaluated by means of immunohistochemical staining for axons (neurofilament, NF, Sigma-Aldrich N0142; serotonin, ImmunoSolution IG1112; tyrosine hydroxylase, TH, Sigma AB152), neuronal somas and their dendrites (microtubule-associated protein, MAP2, Sigma M1406), astroglia (glial fibrillary acidic protein, GFAP, BD Biosciences 556327); pericytes and fibroblasts (PDGFR, Abcam AB32570; type IV collagen, Meridian, T40251R), macrophages and microglia (ED1; Chemicon MAB 1435; isolectin B4, Fisher I21411), and endothelial cells (RECA1, Bio-Rad, MCA970R).
# [2] = test system: rats with spinal cord transection; assay: as above; format: in vivo; conditions: for Reduction of fibrosis: 7 DPI
# Protocol: as §1, §2, §3
# [3] = test system: rats with spinal cord transection
# [4] = regimen a: 1 mg/kg subcutaneous, one dose every 24 hours for 2, 4, or 6 days, starting 12 hours post-injury
# [5] = regimen b: 1 mg/kg SC, 5 doses, every 12 hours, starting 12 hours post-injury
# [6] = regimen c: 1 mg/kg SC, 4 doses, every 12 hours, starting 24 hours post-injury
# [7] = regimen e: 1,125 mg/kg SC, 4 doses, every 12 hours, starting 12 hours post-injury
compound,measurement,setting,value
Cc1ccc(C(=O)N(CCCN)[C@@H](c2oc3cc(Cl)ccc3c(=O)c2Cc2ccccc2)C(C)C)cc1 [SB743921],cells that incorporated EdU,meningeal fibroblasts,20%
same,mortality at 168 h,"[1]; 1.125 mg/kg, regimen e: 1,125 mg/kg SC, 4 doses",> 90%
same,mortality at 168 h,"[1]; regimen b: 1 mg/kg SC, 5 doses",> 50%
same,neural tissue gap,"[2]; Figure 3, 7 DPI, GFAP and MAP2 labeling, initial gap 2 mm",less than 500 µm
same,fibrosis (PDGFR),"[2]; Figure 3, 7 DPI, regimen not stated",partial reduction
same,Neural tissue damage,"[2]; rat, in vivo, sc, 1 mg/kg",Severe spinal atrophy with 6 doses.
same,Systemic adverse effects,[2]; [4],"No detected in the period of survival (7 days post-injury, DPI)."
same,Reduction of fibrosis,[2]; [4],Slight reduction from the 4th dose.
same,signs of neurotoxicity in the perilesional tissue,[2]; regimen b,no obvious signs of neurotoxicity
same,Neural tissue damage,[2]; [5],Mild microhemorrhages.
same,Systemic adverse effects,[2]; [5],"Diarrhea, peritonitis"
same,Reduction of fibrosis,[2]; [5],partially reduced fibrosis; also recorded: Partial
same,animals that had died 7 DPI,"[2]; regimen b, signs of enterocolitis and bacterial translocation or intestinal perforation",Four of the seven
same,Neural tissue damage,[2]; [6],Increases due to inflammation.
same,Reduction of fibrosis,[2]; [6],Inconsistent.
same,Reduction of fibrosis,"[2]; regimen d: 1 mg/kg SC, 4 doses, every 12 hours, starting 12 hours post-injury",Inconsistent.
same,Neural tissue damage,[2]; [7],Inconsistent.
same,Systemic adverse effects,[2]; [7],"Diarrhea, peritonitis"
same,Reduction of fibrosis,[2]; [7],Inconsistent.
Cc1ccc(NC(=O)c2ccc(CN3CCN(C)CC3)cc2)cc1Nc1nccc(-c2cccnc2)n1 [imatinib],"safety (death, adverse effects)","[3]; imatinib regimen a: 4 doses of 5 mg/kg SC, every 12 hours, starting 12 hours post-injury, with implant and ES",completely safe
same,inflammatory cells in the perilesional spinal segments,"[3]; imatinib regimen a: 4 doses of 5 mg/kg SC, every 12 hours, with implant and ES",reduced presence of inflammatory cells
same,PDGFR+ residual fibrotic tissue in the injury site,"[3]; imatinib regimen b: regimen a and additionally 5 mg/kg everyday until the end of electrostimulation, with implant and ES",practically eliminated
same,cases with separation of the stumps of the spinal cord,"[3]; imatinib regimen b, with implant and ES",two thirds
same,distance between the astrocyte front of the stumps,"[3]; imatinib regimen b, with implant and ES, 14 DPI, remaining one-third of the animals",about 400 µm
same,axonal extension and branching,[3]; implant with ES combined with subcutaneous imatinib versus implant with ES alone,significantly increasing axonal extension and branching
